Laboratory results as given in patent publication US11253604B2, “Conjugate of methotrexate and peptide” (CAREGEN CO., LTD., priority 2017, dated 2022).

Experiments:
NIH3T3 fibroblast lines = test: Cytotoxicity test: cell proliferation by MTT analysis (Ez-cytox kit); settings: NIH3T3 fibroblasts, 3.9 to 500 μM, 48 hours, vs non-treated negative control
HaCaT keratinocyte lines = test: as above; settings: HaCaT keratinocytes, 3.9 to 500 μM, 48 hours, vs non-treated negative control

SMILES: CN(Cc1cnc2nc(N)nc(N)c2n1)c1ccc(C(=O)N[C@@H](CCC(=O)O)C(=O)O)cc1 [methotrexate, Methotrexate]
- cytotoxicity (inhibition of cell proliferation) (NIH3T3 fibroblast lines): exhibited a significant degree of cytotoxicity
- cytotoxicity (inhibition of cell proliferation) (HaCaT keratinocyte lines): exhibited a significant degree of cytotoxicity
